pEC50: −log10 of the molar value.
Legend:
MDR1 = molecular target: T1, MDR1 (Homo sapiens, UniProt P08183); test: MDR1 membrane permeability test; type: in vitro ADME; details: pH 7.4, efflux ratio (ER), human MDR1-expressing LLC-PK1 cells, 37° C., read-out: MDR1 substrate screening 1 μM (MDRSUB1)/Ratio (NUMBER)
T1 construct: expressed in transfected cells; host or cells: LLC-PK1 (porcine kidney cells)
Description: MDR1 Membrane Permeability Test
When MDR1 is expressed in excess in LLC-PK1 cell, which is a polar cell, MDR1 is localized in apical membrane (A), thus promoting transcellular transport from the basement membrane side (B) toward direction A. When a ratio to the transcellular transport in the opposite direction is taken and a ratio to a control cell in which a mock vector has been introduced is further taken, an efflux ratio of MDR1 to simple diffusion (corrected efflux ratio) is calculated. Similarly, when a brain/plasma concentration ratio in Mdr1(−/−) mouse is divided by a brain/plasma concentration ratio in wild-type mouse, an efflux ratio of Mdr1 to simple diffusion in blood-brain barrier (BBB) (Kp, brain ratio, higher value means lower central nervous system permeability) is calculated. Adachi Y. et al. (Reference 1) has reported a positive correlation between corrected efflux ratio and Kp, brain ratio (FIG. 5(C)), and efflux ratio in MDR1 expressing cell and Kp, brain ratio (FIG. 5(B)).
To confirm the central nervous system permeability of the compounds of the present invention, a MDR1 membrane permeability test was performed by the following method.
Digoxin and lucifer yellow (LY) were purchased from Sigma-Aldrich, Diclofenac, colchicine and alprenolol were purchased from Wako Pure Chemical Industries, Ltd., and other reagents used were commercially available products of special grade.
Human MDR1-expressing LLC-PK1 cells were cultured according to the report of Takeuchi et al. (Reference 2). Human MDR1-expressing LLC-PK1 cells were cultured in 10% fetal bovine serum (Invitrogen), 500 μg/ml G418 (Invitrogen), 150 ng/ml colchicine-containing M199 medium (Invitrogen) under 5% CO2 conditions at 37° C.
Transcellular transport was performed according to the report of Sugimoto et al. (Reference 3). The cells were cultured for 3 days on HTS Transwell (registered trademark) 96 well permeable support (pore size 0.4 μm, 0.143 cm^2 surface area, Corning Life Sciences) having polyethylene terephthalate membrane on which the cells had been seeded at 3.45×10^4 cells/well. After preincubation in M199 medium (containing 10 mmol/L HEPES, 1% BSA, pH 7.4) for 30 min, a drug solution (10 μmol/L digoxin, 200 μmol/L LY, […]) dissolved in M199 medium was added to the apical side or basolateral side of the Transwell by 75 or 250 μL each and the cells were cultured under 5% CO2 conditions at 37° C. After 1 hr, the sample was collected from the side opposite to the side where the drug solution was added, and the concentration of the test compound was measured by LC-MS/MS. As an internal standard substance, 100 ng/mL alprenolol and diclofenac were used. The analysis conditions were as follows. • LC: UFLC LC-20 (Shimadzu) • MS/MS: API4000 (AB Sciex Instruments) • LC condition: gradient method
[formula] • Amount: amount of transported digoxin/well • Area: surface area of cell monolayer (0.143 cm^2) • C0: concentration of drug solution added • Time: incubation time

[1] = molecular target: T2, human M1 receptor (hCHRM1) (Homo sapiens, UniProt P11229); test: Measurement of M1 receptor positive allosteric modulator (M1PAM) activity, calcium fluorescence with acetylcholine at EC20; type: cell-based; details: for activity (%) at 10 μM: 10 μM test compound, 100% = 1 μM acetylcholine, 0% = DMSO; for pEC50: CHO-K1 cells expressing hCHRM1, acetylcholine at EC20 (final 0.8-1.0 nM), read-out: IP value (inflection point in the concentration-dependent curve)
T2 construct: expressed in transfected cells; host or cells: CHO-K1
T2 sequence (P11229 1-460): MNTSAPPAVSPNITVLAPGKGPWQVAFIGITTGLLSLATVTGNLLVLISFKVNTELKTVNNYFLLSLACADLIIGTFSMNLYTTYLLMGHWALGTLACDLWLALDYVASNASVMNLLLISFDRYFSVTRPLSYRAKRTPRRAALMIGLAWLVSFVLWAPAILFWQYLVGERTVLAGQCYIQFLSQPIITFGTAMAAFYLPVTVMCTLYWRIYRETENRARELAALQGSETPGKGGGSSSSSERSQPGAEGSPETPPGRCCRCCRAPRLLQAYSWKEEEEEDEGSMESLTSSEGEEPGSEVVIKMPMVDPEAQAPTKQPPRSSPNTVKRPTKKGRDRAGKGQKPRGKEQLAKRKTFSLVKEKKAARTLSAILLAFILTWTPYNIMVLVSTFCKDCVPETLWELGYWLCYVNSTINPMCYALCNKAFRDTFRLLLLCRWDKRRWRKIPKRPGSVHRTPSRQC
Description: Measurement of M1 Receptor Positive Allosteric Modulator (M1PAM) Activity
The activity of a test compound in the presence of acetylcholine at EC20 concentration (final concentration 0.8-1.0 nM), which affords an action corresponding to about 20% of the maximum activity, was measured as PAM activity. The method is as follows. CHO-K1 cells stably expressing a human M1 receptor (hCHRM1) were plated on a 384-well black clear bottom plate (BD Falcon) at 5,000 cells/well, and cultured in an incubator at 37° C., 5% CO2 for 1 day. The medium in the cell plate was removed, and assay buffer A containing calcium indicator (Recording medium (DOJINDO LABORATORIES), 0.1% BSA (Wako Pure Chemical Industries, Ltd.), 2.5 μg/mL Fluo-4 AM (DOJINDO LABORATORIES), 0.08% Pluronic F127 (DOJINDO LABORATORIES), 1.25 mM probenecid (DOJINDO LABORATORIES)) was added at 30 μL/well. The cells were left standing in the incubator at 37° C., 5% CO2 for 30 min, and further left standing at room temperature for 30 min. A test compound prepared by diluting with assay buffer B (HBSS (Invitrogen), 20 mM HEPES (Invitrogen), 0.1% BSA) containing 3.2-4.0 nM acetylcholine was added at 10 μL/well, and the fluorescence was measured by FDSS/μCELL (Hamamatsu Photonics K.K.) for 1 min every for 1 second. With the definition that the amount of change in the fluorescence on addition of acetylcholine (final concentration 1 μM) is 100% and that on addition of DMSO instead of a test compound is 0%, the activity (%) of the test compound was calculated, and the inflection point in the concentration-dependent curve of the test compound was calculated as IP values.

T1 sequence (P08183 whole entry): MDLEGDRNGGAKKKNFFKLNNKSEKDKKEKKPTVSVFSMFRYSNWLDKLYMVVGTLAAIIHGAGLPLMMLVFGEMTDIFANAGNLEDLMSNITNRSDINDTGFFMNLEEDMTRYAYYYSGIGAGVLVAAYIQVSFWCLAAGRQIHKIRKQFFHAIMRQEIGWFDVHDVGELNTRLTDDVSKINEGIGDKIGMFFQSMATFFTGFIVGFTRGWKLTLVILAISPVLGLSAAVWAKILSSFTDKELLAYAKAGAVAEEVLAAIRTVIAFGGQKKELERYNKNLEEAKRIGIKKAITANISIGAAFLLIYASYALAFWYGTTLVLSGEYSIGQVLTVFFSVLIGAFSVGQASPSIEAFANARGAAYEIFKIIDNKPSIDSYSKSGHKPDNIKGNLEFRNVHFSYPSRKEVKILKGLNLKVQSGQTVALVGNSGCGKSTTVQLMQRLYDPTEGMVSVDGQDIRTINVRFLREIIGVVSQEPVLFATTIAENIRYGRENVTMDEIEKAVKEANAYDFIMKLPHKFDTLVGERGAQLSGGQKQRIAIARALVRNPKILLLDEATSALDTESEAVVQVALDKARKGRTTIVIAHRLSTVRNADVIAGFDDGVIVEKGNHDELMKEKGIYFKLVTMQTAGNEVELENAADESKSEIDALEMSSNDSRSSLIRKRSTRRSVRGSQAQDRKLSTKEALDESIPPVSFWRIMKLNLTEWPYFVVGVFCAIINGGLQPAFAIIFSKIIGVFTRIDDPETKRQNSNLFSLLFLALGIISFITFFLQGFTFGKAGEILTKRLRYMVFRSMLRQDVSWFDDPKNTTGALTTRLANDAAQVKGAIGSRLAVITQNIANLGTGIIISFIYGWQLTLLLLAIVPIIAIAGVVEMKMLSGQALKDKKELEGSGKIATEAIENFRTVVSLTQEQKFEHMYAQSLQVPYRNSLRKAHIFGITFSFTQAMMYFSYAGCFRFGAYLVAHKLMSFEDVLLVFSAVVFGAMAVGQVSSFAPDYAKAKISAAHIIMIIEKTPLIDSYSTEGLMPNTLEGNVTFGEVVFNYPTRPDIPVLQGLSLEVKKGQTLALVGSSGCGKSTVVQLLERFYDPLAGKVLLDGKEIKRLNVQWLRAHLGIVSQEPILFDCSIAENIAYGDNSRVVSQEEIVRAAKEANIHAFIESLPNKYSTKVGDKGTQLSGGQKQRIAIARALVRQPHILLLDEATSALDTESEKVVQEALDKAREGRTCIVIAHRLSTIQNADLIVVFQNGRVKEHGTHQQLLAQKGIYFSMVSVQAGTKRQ

SMILES	efflux ratio at 1 h, 1 μM (MDR1)	activity (%) at 10 μM [1] [%]	pEC50 [1]
Cn1cc(-c2ccc(C(F)c3cc(C(=O)N[C@H]4CCOC[C@@H]4O)nc4ccoc34)cc2)nn1 (single isomer, unassigned) [Example 55, 1,5-anhydro-2,3-dideoxy-3-(((7-(fluoro(4-(1-methyl-1H-1,2,3-triazol-4-yl)phenyl)methyl)furo[3,2-b]pyridin-5-yl)carbonyl)amino)-L-threo-pentitol]	6.5	107	9.20
Cn1cc(-c2ccc(Cc3cc(C(=O)N[C@H]4CCOC[C@@H]4O)nc4ccoc34)cc2)nn1 [Example 20, 1,5-anhydro-2,3-dideoxy-3-(((7-(4-(1-methyl-1H-1,2,3-triazol-4-yl)benzyl)furo[3,2-b]pyridin-5-yl)carbonyl)amino)-L-threo-pentitol]	4.8	98	9.06
O=C(N[C@H]1CCOC[C@@H]1O)c1cc(Cc2ccc(-n3cccn3)cc2)c2c(n1)CCO2 [Example 22, 1,5-anhydro-2,3-dideoxy-3-(((7-(4-(1H-pyrazol-1-yl)benzyl)-2,3-dihydrofuro[3,2-b]pyridin-5-yl)carbonyl)amino)-L-threo-pentitol]	2.6	106	8.77
Cn1cc(-c2ccc(Cc3cc(C(=O)N[C@H]4CCOC[C@@H]4O)nc4c3OCC4)cc2)nn1 [Example 31, 1,5-anhydro-2,3-dideoxy-3-(((7-(4-(1-methyl-1H-1,2,3-triazol-4-yl)benzyl)-2,3-dihydrofuro[3,2-b]pyridin-5-yl)carbonyl)amino)-L-threo-pentitol]	11	101	8.85
Cn1cc(-c2ccc(Cc3cc(C(=O)N[C@H]4CCOC[C@@H]4O)nc4ccoc34)cn2)cn1 [Example 36, 1,5-anhydro-2,3-dideoxy-3-(((7-((6-(1-methyl-1H-pyrazol-4-yl)pyridin-3-yl)methyl)furo[3,2-b]pyridin-5-yl)carbonyl)amino)-L-threo-pentitol]	9.1	96	8.82
Cn1cc(-c2ccc(Cc3cc(C(=O)N[C@H]4CCOC[C@@H]4O)nc4c3OCC4)cc2)cn1 [Example 44, 1,5-anhydro-2,3-dideoxy-3-(((7-(4-(1-methyl-1H-pyrazol-4-yl)benzyl)-2,3-dihydrofuro[3,2-b]pyridin-5-yl)carbonyl)amino)-L-threo-pentitol]	5.5	105	8.82
Cn1cnc(-c2ccc(Cc3cc(C(=O)N[C@H]4CCOC[C@@H]4O)nc4c3OCC4)cc2)c1 [Example 74, 1,5-anhydro-2,3-dideoxy-3-(((7-(4-(1-methyl-1H-imidazol-4-yl)benzyl)-2,3-dihydrofuro[3,2-b]pyridin-5-yl)carbonyl)amino)-L-threo-pentitol]	11	108	8.82
COCCNC(=O)c1ccc(Cc2cc(C(=O)N[C@H]3CCOC[C@@H]3O)nc3c2OCC3)cc1F [Example 76, 1,5-anhydro-2,3-dideoxy-3-(((7-(3-fluoro-4-((2-methoxyethyl)carbamoyl)benzyl)-2,3-dihydrofuro[3,2-b]pyridin-5-yl)carbonyl)amino)-L-threo-pentitol]	35	109	8.46
O=C(N[C@H]1CCOC[C@@H]1O)c1cc(Cc2ccc(C(=O)NC[C@@H]3CCCO3)c(F)c2)c2c(n1)CCO2 [Example 77, 1,5-anhydro-2,3-dideoxy-3-(((7-(3-fluoro-4-(((2S)-tetrahydrofuran-2-ylmethyl)carbamoyl)benzyl)-2,3-dihydrofuro[3,2-b]pyridin-5-yl)carbonyl)amino)-L-threo-pentitol]	25	108	8.49
O=C(N[C@H]1CCOC[C@@H]1O)c1cc(Cc2ccc(C(=O)NC[C@@H]3CCCO3)c(F)c2)c2occc2n1 [Example 102, 1,5-anhydro-2,3-dideoxy-3-(((7-(3-fluoro-4-(((2S)-tetrahydrofuran-2-ylmethyl)carbamoyl)benzyl)furo[3,2-b]pyridin-5-yl)carbonyl)amino)-L-threo-pentitol]	20	107	8.57
COCCNC(=O)c1ccc(Cc2cc(C(=O)N[C@H]3CCOC[C@@H]3O)nc3ccoc23)cc1F [Example 109, 1,5-anhydro-2,3-dideoxy-3-(((7-(3-fluoro-4-((2-methoxyethyl)carbamoyl)benzyl)furo[3,2-b]pyridin-5-yl)carbonyl)amino)-L-threo-pentitol]	10	107	8.62

From patent US12378256B2, “Heterocyclic compound” (Takeda Pharmaceutical Company Limited, priority 2017, dated 2025)
